# Measured values from patent publication US3997506A (priority 1974, dated 1976).
# “And” between values parts separate entries of the source, which are not always exact repeats. Equal values may be shown once. Read-outs that look alike come from different tables or passages of the source.
# Legend:
# [1] = test system: phagocytosis by peritoneal macrophages of mice; type: cell-based; settings: for % phagocytosis with respect to controls (= 100%): 80 min
# [2] = test system: oedema produced by crystals of urate in the hind paw of the rat; type: in vivo, Sprague Dawely female rats
# leucocytes from rats [3] = type: in vivo, Sprague Dawley SIV 50 he-rats; settings: 2 mg/kg oral
# [4] = test system: Sprague Dawley SIV 50 rat; type: in vivo, male and female Sprague Dawley SIV 50 rat
# Source text: The high toxicity of the new derivative of colchicine (N-desacetyl-N-adamantoyl-thiocolchicine) has been investigated through the oral way with the male and female Sprague Dawley SIV 50 rat having an average weight of 100 g.
# Two experiments have been carried out. In the first one, only the high toxicity of the derivative has been studied; in the second one, the high toxicity of the derivative has been compared with that of colchicine.
# The derivative and colchicine have been administered in suspension in propylene glycol through an oesophageal tube at the rate of 2 ml per rat for the first experiment and of 1 ml for the second one.
# The animals have been observed for 10 days.
# in vitro [5] = type: cell-based, human; settings: human, leucocytes, read-out: % of dead cells
# Protocol: (§1) The cytotoxicity has been investigated on human leucocytes by means of the viability test with Trypan blue.
# (§2) a. In a first experimentation cultures of leucocytes of a voluntary […] were prepared and caused to undergo incubation with phytohemagglutinin (PHA) and with different concentrations of colchicine or of its derivative (C1 = 2.5 μg/ml of culture, C3 = 10 μg/ml, C5 = 30 μg/ml, C6 = 50 μg/ml). Leucocytes only containing PHA served as controls.
# (§3) After 3, 42, 68 and 72 hours of incubation a sample of each culture was contacted by a drop of Trypan blue and laid on a slide of a microscope. Then took place the counting of the dead cells (those with assumed an […] colour) and of all the cells present on the slide in order to obtain the ratio of the number of dead cells to the total number of cells. The results expressed as a rate in per cent are shown in the accompanying table 8.
# (§4) b. After the experimentation which has just been described, the study of cytotoxicity has been continued with two other samples of human leucocytes still by means of the viability test with Trypan blue.
# (§5) C1 = 2.5 μg/ml of culture
# (§6) C6 = 50 μg/ml of culture;
# (§7) and for the carboxy-1-adamantane fraction to:
# (§8) C3 = 4.5 μg/ml of culture
# (§9) C6 = 22.5 μg/ml of culture.
# (§10) Leucocytes only containing phytohemagglutinin and others containing phytohemagglutinin and 50 μl of methanol served as controls.
# (§11) The percentage of dead cells was determined after different numbers of hours of incubation.
# human leucocytes = assay: in vitro; type: cell-based
# Protocol: as §1, §2, §3, §4, §5, §6, §7, §8, §9, §10, §11
# leucocytes from rats [6] = settings: individual rat, 2 mg/kg oral
# leucocytes from rats [7] = settings: 6 hours after administration, 2 mg/kg oral
# in vitro [8] = settings: human, leucocytes, % of dead cells (Average of 2 determinations), no PHA
# [9] = 2 mg/kg, three subcutaneous injections, 6 h after urate
# [10] = first experimentation, C1 = 2.5 μg/ml
# [11] = first experimentation, C3 = 10 μg/ml
# [12] = first experimentation, C5 = 30 μg/ml
# [13] = first experimentation, C6 = 50 μg/ml
# [14] = 6 hours after administration, 2 mg/kg
compound,measurement,setting,value
"COc1cc2c(c(OC)c1OC)-c1ccc(OC)c(=O)cc1[C@@H](NC(C)=O)CC2 [Colchicine, colchicine, reference compound]",inhibition of phagocytosis,[1]; 0.004 μg,15%
same,% phagocytosis with respect to controls (= 100%),"[1]; 0.004 μg, Experimentation III",87.6%
same,% phagocytosis with respect to controls (= 100%),"[1]; 0.004 μg, Experimentation IV",81.6%
same,% phagocytosis with respect to controls (= 100%),"[1]; 0.04 μg, Experimentation III",65%
same,% phagocytosis with respect to controls (= 100%),"[1]; 0.04 μg, Experimentation IV",78.9%
same,% phagocytosis with respect to controls (= 100%),"[1]; 0.04 μg, Experimentation V",79.5%
same,% phagocytosis with respect to controls (= 100%),"[1]; 0.4 μg, Experimentation III",44.7%
same,% phagocytosis with respect to controls (= 100%),"[1]; 0.4 μg, Experimentation IV",54.3%
same,% phagocytosis with respect to controls (= 100%),"[1]; 0.4 μg, Experimentation V",54.4%
same,inhibition of phagocytosis,[1]; 4 μg,65%
same,% phagocytosis with respect to controls (= 100%),"[1]; 4 μg, Experimentation II",36.9%
same,% phagocytosis with respect to controls (= 100%),"[1]; 4 μg, Experimentation III",34.5%
same,% phagocytosis with respect to controls (= 100%),"[1]; 4 μg, Experimentation IV",32.2%
same,% phagocytosis with respect to controls (= 100%),"[1]; 4 μg, Experimentation V",38.2%
same,% phagocytosis with respect to controls (= 100%),"[1]; 5 μg, Experimentation II",30.3%
same,% phagocytosis with respect to controls (= 100%),"[1]; 10 μg, Experimentation II",33.7%
same,% phagocytosis with respect to controls (= 100%),"[1]; 12.5 μg, Experimentation I",36.5%
same,% phagocytosis with respect to controls (= 100%),"[1]; 20 μg, Experimentation II",33.4%
same,% phagocytosis with respect to controls (= 100%),"[1]; 30 μg, Experimentation II",36.2%
same,inhibition of phagocytosis,[1]; 40 μg,67%
same,% phagocytosis with respect to controls (= 100%),"[1]; 40 μg, Experimentation II",32.0%
same,% phagocytosis with respect to controls (= 100%),"[1]; 40 μg, Experimentation III",33.2%
same,% phagocytosis with respect to controls (= 100%),"[1]; 40 μg, Experimentation IV",33.8%
same,% of inhibition of edema,[2]; [9],48%
same,Difference in weight between left and right leg (Average ± standard deviation of mean term),[2]; [9],0.152 ± 0.019 g
same,protection against the oedema produced by crystals of urate (in words),"[2]; colchicine 2 mg/kg, derivative 6 mg/kg",significant protection
same,"cpm / number of lymphocytes, mean","leucocytes from rats [3]; 6 hours after administration, group mean, factor and spread printed on following lines",2.72 × 10^-^2 cpm/number of lymphoc
same,Number of lymphocytes/culture,"leucocytes from rats [3]; 6 hours after administration, individual rat, 2 mg/kg","148,200 lymphocytes/culture and 108,240 lymphocytes/culture"
same,cpm / number of lymphocytes (immunity response),"leucocytes from rats [3]; 6 hours after administration, individual rat, factor × 10^-^2, 2 mg/kg",5.03 × 10^-^2 cpm/number of lymphoc and 0.40 × 10^-^2 cpm/number of lymphoc
same,Number of lymphocytes/culture,"leucocytes from rats [3]; before administration, individual rat, 2 mg/kg","103,960 lymphocytes/culture and 163,400 lymphocytes/culture and 156,400 lymphocytes/culture"
same,rats dead after 24 hours,[4]; 100 mg/kg oral,1 rat
same,rats dead after 48 hours,[4]; 100 mg/kg oral,5 rats
same,rats dead after 24 hours,[4]; 500 mg/kg oral,5 rats
same,rats dead after 48 hours,[4]; 500 mg/kg oral,1 rat
same,cytotoxicity at 4 h,"in vitro [5]; Culture I, C3 = 10 μg/ml",6%
same,cytotoxicity at 4 h,"in vitro [5]; Culture I, C6 = 50 μg/ml",9%
same,cytotoxicity at 22 h,"in vitro [5]; Culture I, C3 = 10 μg/ml",5%
same,cytotoxicity at 22 h,"in vitro [5]; Culture I, C6 = 50 μg/ml",7%
same,cytotoxicity at 46 h,"in vitro [5]; Culture I, C3 = 10 μg/ml",24%
same,cytotoxicity at 46 h,"in vitro [5]; Culture I, C6 = 50 μg/ml",19%
same,cytotoxicity at 76 h,"in vitro [5]; Culture I, C3 = 10 μg/ml",24%
same,cytotoxicity at 76 h,"in vitro [5]; Culture I, C6 = 50 μg/ml",23%
same,cytotoxicity at 23 h,"in vitro [5]; Culture II, C1 = 2.5 μg/ml",3%
same,cytotoxicity at 23 h,"in vitro [5]; Culture II, C3 = 10 μg/ml",4%
same,cytotoxicity at 23 h,"in vitro [5]; Culture II, C5 = 30 μg/ml",5%
same,cytotoxicity at 46 h,"in vitro [5]; Culture II, C1 = 2.5 μg/ml",11%
same,cytotoxicity at 46 h,"in vitro [5]; Culture II, C3 = 10 μg/ml",8%
same,cytotoxicity at 46 h,"in vitro [5]; Culture II, C5 = 30 μg/ml",11%
same,cytotoxicity at 72 h,"in vitro [5]; Culture II, C1 = 2.5 μg/ml",13%
same,cytotoxicity at 72 h,"in vitro [5]; Culture II, C3 = 10 μg/ml",14%
same,cytotoxicity at 72 h,"in vitro [5]; Culture II, C5 = 30 μg/ml",18%
same,cytotoxicity at 3 h,in vitro [5]; [10],1%
same,cytotoxicity at 3 h,in vitro [5]; [11],1%
same,cytotoxicity at 3 h,in vitro [5]; [12],0%
same,cytotoxicity at 3 h,in vitro [5]; [13],0%
same,cytotoxicity at 42 h,in vitro [5]; [10],3%
same,cytotoxicity at 42 h,in vitro [5]; [11],2%
same,cytotoxicity at 42 h,in vitro [5]; [12],10%
same,cytotoxicity at 42 h,in vitro [5]; [13],2%
same,cytotoxicity at 68 h,in vitro [5]; [10],6%
same,cytotoxicity at 68 h,in vitro [5]; [11],9%
same,cytotoxicity at 68 h,in vitro [5]; [12],9%
same,cytotoxicity at 68 h,in vitro [5]; [13],21%
same,cytotoxicity at 72 h,in vitro [5]; [10],7%
same,cytotoxicity at 72 h,in vitro [5]; [12],18%
same,cytotoxicity at 72 h,in vitro [5]; [13],24%
same,"cytotoxicity, cultures I and II (in words)",human leucocytes; Cultures I and II,practically identical with that due to the methanol
same,"cytotoxicity, colchicine versus derivative (in words)",human leucocytes; [10],substantially the same
same,Basophils,leucocytes from rats [6]; 6 hours after administration,0
same,Eosinophils,leucocytes from rats [6]; 6 hours after administration,0
same,Lymphocytes,leucocytes from rats [6]; [14],92 and 81 and 84
same,Neutrophils with non-segmented nucleus,leucocytes from rats [6]; [14],1 and 3
same,Neutrophils with segmented nucleus,leucocytes from rats [6]; [14],6 and 16 and 17
same,Basophils,leucocytes from rats [6]; before administration,0
same,Monocytes,leucocytes from rats [6]; before administration,2
same,Lymphocytes,"leucocytes from rats [6]; before administration, 2 mg/kg",94 and 83 and 87
same,cytotoxic effect (in words),leucocytes from rats [7],no cytotoxic effect has been noticed
same,% of dead cells,"leucocytes from rats [7]; individual rat, 2 mg/kg, 360 min",1% and 2% and 0%
same,cytotoxicity at 6 h,in vitro [8]; C1 = 0.01 μg/ml,1%
same,cytotoxicity at 6 h,in vitro [8]; C2 = 0.1 μg/ml,0%
same,cytotoxicity at 6 h,in vitro [8]; C3 = 0.5 μg/ml,2%
same,cytotoxicity at 6 h,in vitro [8]; C4 = 1.0 μg/ml,1%
same,cytotoxicity at 6 h,in vitro [8]; C5 = 2.5 μg/ml,1%
same,cytotoxicity at 6 h,in vitro [8]; C6 = 10.0 μg/ml,1%
same,cytotoxicity at 30 h,in vitro [8]; C1 = 0.01 μg/ml,55%
same,cytotoxicity at 30 h,in vitro [8]; C2 = 0.1 μg/ml,68%
same,cytotoxicity at 30 h,in vitro [8]; C3 = 0.5 μg/ml,54%
same,cytotoxicity at 30 h,in vitro [8]; C4 = 1.0 μg/ml,59%
same,cytotoxicity at 30 h,in vitro [8]; C5 = 2.5 μg/ml,60%
same,cytotoxicity at 30 h,in vitro [8]; C6 = 10.0 μg/ml,46%
same,cytotoxicity at 48 h,in vitro [8]; C1 = 0.01 μg/ml,93%
same,cytotoxicity at 48 h,in vitro [8]; C2 = 0.1 μg/ml,93%
same,cytotoxicity at 48 h,in vitro [8]; C3 = 0.5 μg/ml,91%
same,cytotoxicity at 48 h,in vitro [8]; C4 = 1.0 μg/ml,95%
same,cytotoxicity at 48 h,in vitro [8]; C5 = 2.5 μg/ml,92%
same,cytotoxicity at 48 h,in vitro [8]; C6 = 10.0 μg/ml,92%
